Source: patent US10118935B2, “Melampomagnolide B dimers” (priority 2014, dated 2018)

Key:
KM12 = experiment: NCI 60 cell line five dose, Colon Cancer
MDA-MB-435 = experiment: NCI 60 cell line five dose, Melanoma
SK-MEL-5 = experiment: NCI 60 cell line five dose, Melanoma
OVCAR-3 = experiment: NCI 60 cell line five dose, Ovarian Cancer
NCI-H226 = experiment: NCI 60 cell line five dose, Non-Small Cell Lung Cancer
SF-539 = experiment: NCI 60 cell line five dose, CNS Cancer
UACC-62 = experiment: NCI 60 cell line five dose, Melanoma
UO-31 = experiment: NCI 60 cell line five dose, Renal Cancer
HCT-116 = experiment: NCI 60 cell line five dose, Colon Cancer
SR = experiment: NCI 60 cell line five dose, Leukemia
A549/ATCC = experiment: NCI 60 cell line five dose, Non-Small Cell Lung Cancer
NCI-H460 = experiment: as above
OVCAR-8 = experiment: NCI 60 cell line five dose, Ovarian Cancer
COLO 205 = experiment: NCI 60 cell line five dose, Colon Cancer
K-562 = experiment: NCI 60 cell line five dose, Leukemia
MALME-3M = experiment: NCI 60 cell line five dose, Melanoma; settings: MAL1ME-3M
UACC-257 = experiment: NCI 60 cell line five dose, Melanoma
MDA-MB-468 = experiment: NCI 60 cell line five dose, Breast Cancer
PC-3 = experiment: NCI 60 cell line five dose, Prostate Cancer
CAKI-1 = experiment: NCI 60 cell line five dose, Renal Cancer
HCT-15 = experiment: NCI 60 cell line five dose, Colon Cancer
SF-268 = experiment: NCI 60 cell line five dose, CNS Cancer

## C=C1C(=O)O[C@H]2[C@H]1CC/C(COC(=O)NCCCCNC(=O)OC/C1=C/CC[C@@]3(C)O[C@H]3[C@H]3OC(=O)C(=C)[C@@H]3CC1)=C\CC[C@@]1(C)O[C@@H]21 [JVM 3-54, bis(((1aR,7aS,10aS,10bS,E)-1a-Methyl-8-methylene-9-oxo-1a,2,3,6,7,7a,8,9,10a,10b-decahydrooxireno[2′,3′:9,10]cyclodeca[1,2-b]furan-5-yl)methyl)butane-1,4-diyldicarbamate]
KM12
  GI50: 3.18 µM
  TGI: 10.5 µM
KM12; Log10 Concentration −4.0
  Percent Growth: −80%
KM12; Log10 Concentration −5.0
  Percent Growth: 2%
KM12; Log10 Concentration −6.0
  Percent Growth: 99%
KM12; Log10 Concentration −7.0
  Percent Growth: 100%
KM12; Log10 Concentration −8.0
  Percent Growth: 102%
KM12; read-out: LC50
  CC50: 43.3 µM
MDA-MB-435
  GI50: 1.24 µM
  TGI: 3.41 µM
MDA-MB-435; Log10 Concentration −4.0
  Percent Growth: −97%
MDA-MB-435; Log10 Concentration −5.0
  Percent Growth: −53%
MDA-MB-435; Log10 Concentration −6.0
  Percent Growth: 60%
MDA-MB-435; Log10 Concentration −7.0
  Percent Growth: 82%
MDA-MB-435; Log10 Concentration −8.0
  Percent Growth: 100%
MDA-MB-435; read-out: LC50
  CC50: 9.42 µM
SK-MEL-5
  GI50: 3.33 µM
  TGI: 11.8 µM
SK-MEL-5; Log10 Concentration −4.0
  Percent Growth: −85%
SK-MEL-5; Log10 Concentration −5.0
  Percent Growth: 7%
SK-MEL-5; Log10 Concentration −6.0
  Percent Growth: 98%
SK-MEL-5; Log10 Concentration −7.0
  Percent Growth: 100%
SK-MEL-5; Log10 Concentration −8.0
  Percent Growth: 97%
SK-MEL-5; read-out: LC50, SK-MEL-6
  CC50: 41.4 µM
OVCAR-3
  GI50: 0.693 µM
  TGI: 2.01 µM
OVCAR-3; Log10 Concentration −4.0
  Percent Growth: −96%
OVCAR-3; Log10 Concentration −5.0
  Percent Growth: −93%
OVCAR-3; Log10 Concentration −6.0
  Percent Growth: 40%
OVCAR-3; Log10 Concentration −7.0
  Percent Growth: 101%
OVCAR-3; Log10 Concentration −8.0
  Percent Growth: 101%
OVCAR-3; read-out: LC50
  CC50: 4.76 µM
NCI-H226
  GI50: 11.4 µM
  TGI: 30.5 µM
NCI-H226; Log10 Concentration −4.0
  Percent Growth: −60%
NCI-H226; Log10 Concentration −5.0
  Percent Growth: 57%
NCI-H226; Log10 Concentration −6.0
  Percent Growth: 100%
NCI-H226; Log10 Concentration −7.0
  Percent Growth: 97%
NCI-H226; Log10 Concentration −8.0
  Percent Growth: 98%
NCI-H226; read-out: LC50
  CC50: 81.6 µM
SF-539
  GI50: 1.55 µM
  TGI: 3.71 µM
SF-539; Log10 Concentration −4.0
  Percent Growth: −100%
SF-539; Log10 Concentration −5.0
  Percent Growth: −57%
SF-539; Log10 Concentration −6.0
  Percent Growth: 75%
SF-539; Log10 Concentration −7.0
  Percent Growth: 93%
SF-539; Log10 Concentration −8.0
  Percent Growth: 103%
SF-539; read-out: LC50
  CC50: 8.84 µM
UACC-62
  GI50: 0.753 µM
  TGI: 2.5 µM
UACC-62; Log10 Concentration −4.0
  Percent Growth: −86%
UACC-62; Log10 Concentration −5.0
  Percent Growth: −67%
UACC-62; Log10 Concentration −6.0
  Percent Growth: 44%
UACC-62; Log10 Concentration −7.0
  Percent Growth: 93%
UACC-62; Log10 Concentration −8.0
  Percent Growth: 95%
UACC-62; read-out: LC50
  CC50: 7.06 µM
UO-31
  GI50: 7.61 µM
  TGI: 20.9 µM
UO-31; Log10 Concentration −4.0
  Percent Growth: −95%
UO-31; Log10 Concentration −5.0
  Percent Growth: 45%
UO-31; Log10 Concentration −6.0
  Percent Growth: 88%
UO-31; Log10 Concentration −7.0
  Percent Growth: 84%
UO-31; Log10 Concentration −8.0
  Percent Growth: 86%
UO-31; read-out: LC50
  CC50: 47.7 µM
HCT-116
  GI50: 1.12 µM
  TGI: 2.63 µM
HCT-116; Log10 Concentration −4.0
  Percent Growth: −88%
HCT-116; Log10 Concentration −5.0
  Percent Growth: −78%
HCT-116; Log10 Concentration −6.0
  Percent Growth: 56%
HCT-116; Log10 Concentration −7.0
  Percent Growth: 85%
HCT-116; Log10 Concentration −8.0
  Percent Growth: 99%
HCT-116; read-out: LC50
  CC50: 6.19 µM
SR
  GI50: 0.549 µM
  TGI: 3.51 µM
SR; Log10 Concentration −4.0
  Percent Growth: −34%
SR; Log10 Concentration −5.0
  Percent Growth: −29%
SR; Log10 Concentration −6.0
  Percent Growth: 35%
SR; Log10 Concentration −7.0
  Percent Growth: 94%
SR; Log10 Concentration −8.0
  Percent Growth: 93%
SR; read-out: LC50
  CC50: > 100 µM
A549/ATCC
  GI50: 8.02 µM
  TGI: 23.1 µM
A549/ATCC; Log10 Concentration −4.0
  Percent Growth: −79%
A549/ATCC; Log10 Concentration −5.0
  Percent Growth: 45%
A549/ATCC; Log10 Concentration −6.0
  Percent Growth: 99%
A549/ATCC; Log10 Concentration −7.0
  Percent Growth: 99%
A549/ATCC; Log10 Concentration −8.0
  Percent Growth: 100%
A549/ATCC; read-out: LC50
  CC50: 58.7 µM
NCI-H460
  GI50: 4.61 µM
  TGI: 18 µM
NCI-H460; Log10 Concentration −4.0
  Percent Growth: −71%
NCI-H460; Log10 Concentration −5.0
  Percent Growth: 24%
NCI-H460; Log10 Concentration −6.0
  Percent Growth: 101%
NCI-H460; Log10 Concentration −7.0
  Percent Growth: 103%
NCI-H460; Log10 Concentration −8.0
  Percent Growth: 102%
NCI-H460; read-out: LC50
  CC50: 60.7 µM
OVCAR-8
  GI50: 2.18 µM
  TGI: 8.26 µM
OVCAR-8; Log10 Concentration −4.0
  Percent Growth: −78%
OVCAR-8; Log10 Concentration −5.0
  Percent Growth: −7%
OVCAR-8; Log10 Concentration −6.0
  Percent Growth: 79%
OVCAR-8; Log10 Concentration −7.0
  Percent Growth: 99%
OVCAR-8; Log10 Concentration −8.0
  Percent Growth: 99%
OVCAR-8; read-out: LC50
  CC50: 40.2 µM
COLO 205
  GI50: 0.466 µM
  TGI: 1.8 µM
COLO 205; Log10 Concentration −4.0
  Percent Growth: −61%
COLO 205; Log10 Concentration −5.0
  Percent Growth: −73%
COLO 205; Log10 Concentration −6.0
  Percent Growth: 25%
COLO 205; Log10 Concentration −7.0
  Percent Growth: 100%
COLO 205; Log10 Concentration −8.0
  Percent Growth: 100%
COLO 205; read-out: LC50
  CC50: 5.79 µM
K-562
  GI50: 0.665 µM
  TGI: 10.4 µM
K-562; Log10 Concentration −4.0
  Percent Growth: −46%
K-562; Log10 Concentration −5.0
  Percent Growth: 1%
K-562; Log10 Concentration −6.0
  Percent Growth: 40%
K-562; Log10 Concentration −7.0
  Percent Growth: 96%
K-562; Log10 Concentration −8.0
  Percent Growth: 101%
K-562; read-out: LC50
  CC50: > 100 µM
MALME-3M
  GI50: 0.452 µM
  TGI: 2.19 µM
MALME-3M; Log10 Concentration −4.0
  Percent Growth: −64%
MALME-3M; Log10 Concentration −5.0
  Percent Growth: −56%
MALME-3M; Log10 Concentration −6.0
  Percent Growth: 29%
MALME-3M; Log10 Concentration −7.0
  Percent Growth: 90%
MALME-3M; Log10 Concentration −8.0
  Percent Growth: 95%
MALME-3M; read-out: LC50
  CC50: 8.43 µM
UACC-257
  GI50: 1.68 µM
  TGI: 4.99 µM
UACC-257; Log10 Concentration −4.0
  Percent Growth: −82%
UACC-257; Log10 Concentration −5.0
  Percent Growth: −32%
UACC-257; Log10 Concentration −6.0
  Percent Growth: 74%
UACC-257; Log10 Concentration −7.0
  Percent Growth: 92%
UACC-257; Log10 Concentration −8.0
  Percent Growth: 95%
UACC-257; read-out: LC50
  CC50: 22.9 µM
MDA-MB-468
  GI50: 0.426 µM
  TGI: 2 µM
MDA-MB-468; Log10 Concentration −4.0
  Percent Growth: −69%
MDA-MB-468; Log10 Concentration −5.0
  Percent Growth: −59%
MDA-MB-468; Log10 Concentration −6.0
  Percent Growth: 26%
MDA-MB-468; Log10 Concentration −7.0
  Percent Growth: 91%
MDA-MB-468; Log10 Concentration −8.0
  Percent Growth: 92%
MDA-MB-468; read-out: LC50
  CC50: 7.76 µM
PC-3
  GI50: 2.55 µM
  TGI: 8.05 µM
PC-3; Log10 Concentration −4.0
  Percent Growth: −93%
PC-3; Log10 Concentration −5.0
  Percent Growth: −9%
PC-3; Log10 Concentration −6.0
  Percent Growth: 91%
PC-3; Log10 Concentration −7.0
  Percent Growth: 99%
PC-3; Log10 Concentration −8.0
  Percent Growth: 99%
PC-3; read-out: LC50
  CC50: 30.5 µM
CAKI-1
  GI50: 10.8 µM
  TGI: 23 µM
CAKI-1; Log10 Concentration −4.0
  Percent Growth: −97%
CAKI-1; Log10 Concentration −5.0
  Percent Growth: 55%
CAKI-1; Log10 Concentration −6.0
  Percent Growth: 91%
CAKI-1; Log10 Concentration −7.0
  Percent Growth: 90%
CAKI-1; Log10 Concentration −8.0
  Percent Growth: 93%
CAKI-1; read-out: LC50
  CC50: 49.1 µM
HCT-15
  GI50: 5.61 µM
  TGI: 20.8 µM
HCT-15; Log10 Concentration −4.0
  Percent Growth: 79%
HCT-15; Log10 Concentration −5.0
  Percent Growth: 37%
HCT-15; Log10 Concentration −6.0
  Percent Growth: 90%
HCT-15; Log10 Concentration −7.0
  Percent Growth: 94%
HCT-15; Log10 Concentration −8.0
  Percent Growth: 96%
HCT-15; read-out: LC50
  CC50: 56.3 µM
SF-268
  GI50: 3.18 µM
  TGI: 12.6 µM
SF-268; Log10 Concentration −4.0
  Percent Growth: −74%
SF-268; Log10 Concentration −5.0
  Percent Growth: 8%
SF-268; Log10 Concentration −6.0
  Percent Growth: 92%
SF-268; Log10 Concentration −7.0
  Percent Growth: 97%
SF-268; Log10 Concentration −8.0
  Percent Growth: 97%
SF-268; read-out: LC50
  CC50: 51 µM
